Results from patent US20200206313A1, “POLYPEPTIDE NANOTUBES LINKED BY DISULFIDE BONDS FOR TARGETED DELIVERY OF CYTOTOXIC THERAPIES” (MUSC FOUNDATION FOR RESEARCH DEVELOPMENT, priority 2018, published 2020).
No end group written: not given here. *: point of attachment. FITC = O=C1OC2(c3ccc(O)cc3Oc3cc(O)ccc32)c2ccc(NC(=S)*)cc21

Assays:
HeLa = assay: Cytotoxicity, MTT assay, HeLa; type: cell-based
Procedure: (§1) HeLa (Cervical cancer cell line), MDA-MB-231 (Breast cancer cell line) and HaCaT (Human keratinocytes) cells were maintained in growth medium consisting of Dulbecco's Modified Eagle's Medium (DMEM, Gibco, India) with high glucose, supplemented with 10% FBS and 1% penicillin-streptomycin. The cells were grown in […] flasks (BD Falcon) and passaged every three days. All culture reagents were purchased from Thermofisher scientific. The serum free media was used to eliminate any confounding effects from serum adsorption to the nanotubes. Within the time-period (5 h) of the experiment, no adverse cellular responses were observed from serum deprivation or serum shock after a transfer from serum containing growth media.
(§2) Cytotoxicity of nanotube, DOX loaded nanotube and free DOX were assessed in HeLa and MDAMB231 using the MTT assay. About 5×10^3 cells were seeded per well of a 96-well plate and allowed to attach during incubation for 24 h in a humidified incubator at 37° C. Cells were treated with different concentrations of nanotubes, free DOX or DOX loaded nanotubes ranging from 0.2 to 6.4 μg/ml. Four hours before termination of the assay, MTT was added. Mitochondria of viable cells […] MTT to produce purple Formazan crystals. […] The absorbance of each well was measured at 570 nm using a microplate reader (Synergy HT, BioTek Instrument Inc., Winooski Vt.). […]

HeLa cells [1] = assay: Confocal visualization of cellular uptake of DOX in HeLa cells; type: cell-based; conditions: 0.4 μg/ml, 1 h and 4 h
Procedure: (§3) For microscopic analysis, cells were grown on sterile coverslips with all treatments performed in DMEM without serum for 1 h or 4 h. Treatment was terminated by removing medium and cells washing cells twice with PBS followed by nuclear staining with DAPI (4′,6-diamidino-2-phenylindole) for 10 min at room temperature. Cells were then washed with DPBS and excess buffer was removed. Coverslips were then treated with Antifade (Thermo Fisher Scientific India Private Ltd.) and sealed to a sterile glass slide and analyzed by confocal microscopy (LSM 510 Meta equipped with an Airyscan module, Zeiss, GmbH, Germany).

HeLa cells [2] = assay: Cellular uptake of DOX by FACS, HeLa; type: cell-based; conditions: percentage population, 0.4 μg/ml, the sentence does not name the cell line (HeLa assumed)
Procedure: Fluorescence-activated cell sorting (FACS) was used to quantify the cellular uptake of free Doxorubicin and that released from the Nanotube-DOX conjugates exposed to HeLa and HaCaT cells. The cells were treated with free DOX and Nanotube-DOX for 0.5, 1, 2 and 4 h using concentrations corresponding to their IC50 values. The cells were washed with DPBS to remove the unassimilated DOX and then trypsinized. The cell suspension was then centrifuged, and the pellet was re-suspended in 300 μl of DPBS with 0.1% of FBS. The DOX uptake was estimated by quantifying the cell populations using FACS employing Cell Quest software (using a FACSCalibur instrument, BD Biosciences, San Jose Calif.).

[3] = In vitro DOX release by dialysis method; type: physicochemical; conditions: physiological pH 7.4, 37° C., free DOX versus nanotube-DOX
Procedure: In-vitro drug release experiments were conducted using the dialysis method. The Nanotube-DOX conjugate was dialyzed against medium under different conditions: pH 5, pH 7.4, pH 7.4 with addition of 10 mM GSH, pH 5+10 mM GSH, pH 7.5+10 mM GSH+Enzyme (trypsin) and pH 5+10 mM GSH+trypsin. GSH was used to stimulate redox conditions and trypsin was used to investigate the effect of a non-specific enzyme on nanotube drug carrying ability. As a control free DOX was dialyzed against the same medium at physiological pH (7.4). All dialysis experiments were performed using a dialysis kit having a molecular mass cutoff of 1 kDa. Samples were dialyzed against the DMEM medium without phenol red (Thermofisher scientific) containing 1% P/S (Penicillin-Streptomycin, Cat no, India), 10% FBS (Fetal bovine serum, RM10432, Himedia, India) separately, with gentle and constant stirring at 37° C. At specific time points, aliquots of the medium were collected and absorbance at 495 nm was measured to quantify the release of DOX.

MDAMB231 = assay: Cytotoxicity, MTT assay, MDAMB231; type: cell-based
Procedure: as §1, §2

[4] = system: integrin receptors on the cell surface (HeLa cells); assay: Confocal imaging of nanotube-FITC interaction with HeLa cells; type: cell-based; conditions: for change of cell-associated signal after integrin inhibitor RGDS: 1 h with 25 μg/ml inhibitor after 4 h incubation
Procedure: as §3

Zeta potential = type: physicochemical
Procedure: The Nano tubular size distribution was measured on Zetasizer (Malvern, Southborough, Mass., USA). The changes in the surface charges of free nanotube and nanotube-DOX were probed via the zeta potential using Nano ZS (Malvern, Southborough, Mass., USA).

[5] = Stability of nanotubes by fluorescence emission spectra at various pH and temperature; type: physicochemical
Procedure: Fluorescence spectra were acquired on a Perkin Elmer Fluorescence spectrometer. Spectra were recorded for protein samples prepared in 10 mM Tris buffer at pH 7 or 12 (i.e., neutral and basic pH) and 10 mM HEPES buffer at pH 2 (acidic pH) and data were recorded using a 1.0 cm path length quartz cuvette. An excitation wavelength of 280 nm (tyrosine excitation) was used having slit width 2.5 nm and emission spectra were collected from 300 nm to 550 nm with λmax at 340 nm.

[6] = system: integrin-induced phosphorylation of FAK at tyrosine 397; assay: Integrin signaling: Western blot of FAK phosphorylation at tyrosine 397 in HeLa cells; type: cell-based; conditions: 500 ng/ml, 1 h
Procedure: Cells were maintained as mentioned above in 65 mm dishes. HeLa cells were serum starved for 24 h to remove the effect of serum on cells. Cells were treated with nanotubes or full length IGFBP-2 (1-289) for 1 h in serum-free DMEM. An additional set of cells was treated for 1 h with nanotubes or full length IGFBP-2 without the integrin pathway inhibitor (RGDS) under the same conditions. For control treatments, cells were pretreated with 10 mM RGDS peptide for 1 h. Later, cells were washed once with PBS and lysed in detergent lysis buffer (150 mM NaCl (Sigma Aldrich, USA), 0.1% SDS (Calbiochem, Germany), 0.5% NP40 (Amresco, USA), 1 mM EDTA (pH 8) and protease inhibitor cocktail, PIC (Calbiochem) with gentle vortexing at 4° C. for 20 min and centrifuged at 10,000×g for 10 min. The soluble fraction was separated and, protein estimation was done by Bradford assay. 30 μg of total protein was dissolved in SDS sample buffer (240 mM Tris-HCl (pH 6.8), 8% (w/v) SDS, 0.1% bromophenol blue and 40% (v/v) glycerol), heated at 96° C. for 10 min and centrifuged briefly. Samples were resolved on 12.5% SDS-polyacrylamide gels in Tris-glycine electrophoresis buffer (pH 8.3) containing 25 mM Tris base, 250 mM glycine and 0.1% SDS at 100 Volts for 2 h. […]

[7] = Stability of mature nanotubes by AFM; type: physicochemical; conditions: ~9-months old nanotubes
Procedure: AFM experiments were performed on a NX-10 AFM (Park systems) system in the non-contact mode. The protein sample was dropped onto freshly cleaved mica and incubated for 20 min. After rinsing with Milli-Q water two times, the sample was dried in a desiccator. […] The tip radius was <10 nm. Images were obtained at a scan rate of 1 Hz.

Compound: COc1cccc2c1C(=O)c1c(O)c3c(c(O)c1C2=O)C[C@@](O)(C(=O)CO)C[C@@H]3O[C@H]1C[C@H](N)[C@H](O)[C@H](C)O1.Cl [free DOX, Doxorubicin hydrochloride]
- cells killed (HeLa; 5 μg/ml, 48 h): ~70%
- intracellular localization of drug (HeLa cells [1]): major accumulation is seen within nuclei
- increase in Dox uptake from 2 h to 4 h (HeLa cells [2]): more than 5 fold
- release of DOX into the medium [3]: faster than that of DOX loaded on the nanotube
- cells killed (MDAMB231; MDAMB231, 5 μg/ml, 48 h): ~70%

Compound: Fluorescein isothiocyanate [free FITC, reference compound]
- change of cell-associated signal after integrin inhibitor RGDS [4]: does not show a significant decrease

Compound: nanotube-FITC (GPLGSPGIRGSCVNPNTGK(FITC)LIQGAPTIRGDPECHLFYNEQQEACGVHTQRMT; not fully specified (bridges); also: self-assembled nanotube, subunits linked by intermolecular cysteine disulfides)
- internalization / cellular distribution ([4]; 360 ng/ml, 4 h, serum free medium): no significant internalization
- change of cell-associated signal after integrin inhibitor RGDS [4]: prominent loss of nanotube-FITC intensity

Compound: nanotube: Self-assembled disulfide-linked nanotube of polypeptide hIGFBP-2 249-289 (R281C), SEQ ID NO: 1, with RGD motif (GPLGSPGIRGSCVNPNTGKLIQGAPTIRGDPECHLFYNEQQEACGVHTQRMT; not fully specified (bridges); also: self-assembled nanotube, subunits linked by intermolecular disulfides (Cys12, Cys33, Cys44))
- cytotoxicity of nanotube alone (HeLa; after 48 h): did not cause any appreciable cytotoxicity
- zeta potential (Zeta potential): −21.4 mV
- stability at different pH ([5]; pH 2, 7 and 12, fluorescence spectra): stable at all the three pH
- stability at high temperature ([5]; pH 7, 90° C., fluorescence spectra): intact
- cytotoxicity of nanotube alone (MDAMB231; MDAMB231, after 48 h): did not cause any appreciable cytotoxicity
- pFAK induction in presence of RGDS inhibitor ([6]; RGDS pre-treatment): compromised
- intensity of pFAK ([6]; absence of inhibitor): higher compared to control cells
- morphological characteristics on storage [7]: intact
